Laboratory results reported in the NIST ThermoML archive (doi:10.1021/je800934r).

Assay: mn = molality of the nth substance listed, in mol/kg
Conditions: 101 kPa, Liquid; for viscosity: Capillary tube (Ostwald / Ubbelohde) method; for speed of sound: Pulse-echo method; for mass density: Vibrating tube method

CCCCCCCCCCCCc1ccccc1S(=O)(=O)[O-].[Na+] [sodium dodecylbenzenesulfonate (ILL DEFINED!)] + O
Conditions | mass density, 298.15 K [kg/m3] | mass density, 308.15 K [kg/m3] | speed of sound, 298.15 K [m/s] | speed of sound, 308.15 K [m/s] | viscosity, 298.15 K [mPa·s] | viscosity, 308.15 K [mPa·s]
m1 = 0.05 | 999.92 | 996.76 | 1498.7 | 1522.7 | 0.999 | 0.795
m1 = 0.1 | 1002.75 | 999.44 | 1500 | 1523.5 | 1.106 | 0.868
